Test results published in patent publication US9499550B2 (BRISTOL-MYERS SQUIBB COMPANY, priority 2012, dated 2016).
Where two headings read alike, the source gives them in different places.

Tests used:
[1] = tested on: HCV genotype 1a (H77 strain) replicon in HUH-7 cells; experiment: HCV replicon luciferase reporter assay, genotype 1a; assay type: cell-based; settings: Hepatitis C virus, Huh-7, 72 h, 3 days incubation
Method in brief: (§1)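 Replicon inhibition for both genotypes was measured as Renilla luciferase signal (EnduRen, 7.5 μM final, 2 h) after 3-day, 37° C exposure of replicon-bearing HUH-7 cells in 4% FCS DMEM, 0.5% DMSO. The 1b construct carries S1179I; the 1a H77 construct carries P1496L and S2204I. Twenty-point, 3-fold dilutions were fitted four-parametrically for EC50, and CC50 was taken from multiplexed Cell Titer-Blue.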

[2] = tested on: HCV genotype 1b (Con1) replicon in HUH-7 cells; experiment: HCV replicon luciferase reporter assay, genotype 1b; assay type: cell-based; settings: Hepatitis C virus, Huh-7, 72 h, 3 days incubation
Method in brief: as §1

[3] = HCV genotype 1a replicon luciferase assay, range class, read-out: LE_1a (EC50, range)
[4] = HCV genotype 1b replicon luciferase assay, range class, read-out: LE_1b (EC50, range)
[5] = GETYPE1A, HCV genotype 1a replicon luciferase, read-out: LE_1a (EC50, range)
[6] = GETYPE1B, HCV genotype 1b replicon luciferase, read-out: LE_1b (EC50, range)
[7] = HCV genotype 1a replicon luciferase, read-out: LE_1a (EC50, range)
[8] = HCV genotype 1b replicon luciferase, read-out: LE_1b (EC50, range)

`COCCOc1cnc(O[C@@H]2C[C@H]3C(=O)N[C@]4(C(=O)NS(=O)(=O)C5(C)CC5)C[C@H]4/C=C\CC[C@@H](C)C[C@@H](C)[C@H](NC(=O)OC4COC4)C(=O)N3C2)c2ccc(OC)cc12` [Compound 1157, oxetan-3-yl ((2R,6S,7R,9R,13aS,14aR,16aS,Z)-2-((6-methoxy-4-(2-methoxyethoxyl)isoquinolin-1-yl)oxy)-7,9-dimethyl-14a-(((1-methylcyclopropyl)sulfonyl)carbamoyl)-5,16-dioxo-1,2,3,5,6,7,8,9,10,11,13a,14,14a,15,16,16a-hexadecahydrocyclopropa[e]pyrrolo[1,2-a][1,4]diazacyclopentadecin-6-yl)carbamate] gave an EC50 [1, 3] of 4.82 to 103 nM and an EC50 [2, 4] of 4.82 to 103 nM.
`COc1ccc2c(O[C@@H]3C[C@H]4C(=O)N[C@]5(C(=O)NS(=O)(=O)C6CC6)C[C@H]5/C=C\CC[C@@H](C)C[C@@H](C)[C@H](NC(=O)OC(C)(C)C)C(=O)N4C3)nc(N(C)C)cc2c1` [Compound 3121, tert-butyl ((2R,6S,7R,9R,13aS,14aR,16aS,Z)-14a-((cyclopropylsulfonyl)carbamoyl)-2-((3-(dimethylamino)-6-methoxyisoquinolin-1-yl)oxy)-7,9-dimethyl-5,16-dioxo-1,2,3,5,6,7,8,9,10,11,13a,14,14a,15,16,16a-hexadecahydrocyclopropa[e]pyrrolo[1,2-a][1,4]diazacyclopentadecin-6-yl)carbamate] gave an EC50 [1, 3] of 4.82 to 103 nM and an EC50 [2, 4] of less than 5.46 nM.
Work on `COc1cnc(O[C@@H]2C[C@H]3C(=O)N[C@]4(C(=O)NS(=O)(=O)C5(F)CC5)C[C@H]4/C=C\CC[C@@H](C)C[C@@H](C)[C@H](NC(=O)OC(C)(C)C(F)(F)F)C(=O)N3C2)c2cccc(Cl)c12` [Compound 30] yielded an EC50 ([1]; GETYPE1A, HCV genotype 1a replicon luciferase assay, range class, read-out: LE_1a (EC50, range)) of less than 5.46 nM and an EC50 ([2]; GETYPE1B, HCV genotype 1b replicon luciferase assay, range class, read-out: LE_1b (EC50, range)) of less than 5.46 nM.
Work on `CC[C@@H]1C[C@H](C)CC/C=C\[C@@H]2C[C@@]2(C(=O)NS(=O)(=O)C2(CO)CC2)NC(=O)[C@@H]2C[C@@H](Oc3nccc4cc(OC)c(F)cc34)CN2C(=O)[C@H]1NC(=O)OC(C)(C)C(F)(F)F` [Compound 4325] yielded an EC50 [1, 5] of 35 to 620 nM and an EC50 [2, 6] of 5.01 to 35 nM.
Compound `COc1ccc2c(O[C@@H]3C[C@H]4C(=O)N[C@]5(C(=O)NS(=O)(=O)C6(C)CC6)C[C@H]5/C=C\CC[C@H](C)C[C@@H](C)[C@H](NC(=O)O[C@@H]5C[C@@H]6C[C@@H]6C5)C(=O)N4C3)nc(N(C)C)cc2c1` [Compound 3110, (1R,3r,5S)-bicyclo[3.1.0]hexan-3-yl((2R,6S,7R,9S,13aS,14aR,16aS,Z)-2-((3-(dimethylamino)-6-methoxyisoquinolin-1-yl)oxy)-7,9-dimethyl-14a-(((1-methylcyclopropyl)sulfonyl)carbamoyl)-5,16-dioxo-1,2,3,5,6,7,8,9,10,11,13a,14,14a,15,16,16a-hexadecahydrocyclopropa[e]pyrrolo[1,2-a][1,4]diazacyclopentadecin-6-yl)carbamate] has an EC50 [1, 3] of 4.82 to 103 nM and an EC50 [2, 4] of 4.82 to 103 nM.
`C[C@@H]1CC/C=C\[C@@H]2C[C@@]2(C(=O)NS(=O)(=O)C2(C)CC2)NC(=O)[C@@H]2C[C@@H](Oc3ncc(O)c4ccccc34)CN2C(=O)[C@@H](NC(=O)OC(C)(C)C(F)(F)F)[C@H](C)C1` [Compound 4103] showed an EC50 [1, 5] of 4.82 to 103 nM and an EC50 [2, 6] of 4.82 to 103 nM.
`COc1cnc(O[C@@H]2C[C@H]3C(=O)N[C@]4(C(=O)NS(=O)(=O)C5(F)CC5)C[C@H]4/C=C\CC[C@H](C)C[C@@H](C)[C@H](NC(=O)OC(C)(C)C(F)(F)F)C(=O)N3C2)c2ccccc12` [Compound 15, 1,1,1-trifluoro-2-methylpropan-2-yl((2R,6S,7R,9S,13aS,14aR,16aS,Z)-14a-(((1-fluorocyclopropyl)sulfonyl)carbamoyl)-2-((4-methoxyisoquinolin-1-yl)oxy)-7,9-dimethyl-5,16-dioxo-1,2,3,5,6,7,8,9,10,11,13a,14,14a,15,16,16a-hexadecahydrocyclopropa[e]pyrrolo[1,2-a][1,4]diazacyclopentadecin-6-yl)carbamate] gave an EC50 [1, 3] of less than 5.46 nM and an EC50 [2, 4] of less than 5.46 nM.
`COc1ccc2c(O[C@@H]3C[C@H]4C(=O)N[C@]5(C(=O)NS(=O)(=O)C6(C)CC6)C[C@H]5/C=C\CC[C@@H](C)C[C@@H](C)[C@H](NC(=O)OC(C)(C)C)C(=O)N4C3)ncnc2c1` [Compound 4144, tert-butyl (2R,6S,7R,9R,13aS,14aR,16aS,Z)-2-(7-methoxyquinazolin-4-yloxy)-7,9-dimethyl-14a-(1-methylcyclopropylsulfonylcarbamoyl)-5,16-dioxo-1,2,3,5,6,7,8,9,10,11,13a,14,14a,15,16,16a-hexadecahydrocyclopropa[e]pyrrolo[1,2-a][1,4]diazacyclopentadecin-6-ylcarbamate] was tested, and the EC50 [1, 7] was less than 5.46 nM and the EC50 [2, 8] was less than 5.46 nM.
Work on `COc1cnc(O[C@@H]2C[C@H]3C(=O)N[C@]4(C(=O)NS(=O)(=O)C5(CF)CC5)C[C@H]4CCCC[C@@H](C)C[C@@H](C)[C@H](NC(=O)OC(C)(C)C(F)(F)F)C(=O)N3C2)c2ccccc12` [Compound 5117, 1,1,1-trifluoro-2-methylpropan-2-yl((2R,6S,7R,9R,13aR,14aR,16aS)-14a-(((1-(fluoromethyl)cyclopropyl)sulfonyl)carbamoyl)-2-((4-methoxyisoquinolin-1-yl)oxy)-7,9-dimethyl-5,16-dioxooctadecahydrocyclopropa[e]pyrrolo[1,2-a][1,4]diazacyclopentadecin-6-yl)carbamate] yielded an EC50 [1, 7] of less than 5.46 nM and an EC50 [2, 8] of less than 5.46 nM.
In the case of `CCOc1ccc2c(O[C@@H]3C[C@H]4C(=O)N[C@]5(C(=O)NS(=O)(=O)C6(C)CC6)C[C@H]5/C=C\CC[C@H](C)C[C@@H](C)[C@H](NC(=O)OCC5(C)CC5)C(=O)N4C3)nccc2c1` [Compound 5139, (1-methylcyclopropyl)methyl ((2R,6S,7R,9S,13aS,14aR,16aS,Z)-2-((6-ethoxyisoquinolin-1-yl)oxy)-7,9-dimethyl-14a-(((1-methylcyclopropyl)sulfonyl)carbamoyl)-5,16-dioxo-1,2,3,5,6,7,8,9,10,11,13a,14,14a,15,16,16a-hexadecahydrocyclopropa[e]pyrrolo[1,2-a][1,4]diazacyclopentadecin-6-yl)carbamate], the EC50 [1, 7] is reported as 4.82 to 103 nM and the EC50 [2, 8] is reported as less than 5.46 nM.
With `CCCOc1cnc(O[C@@H]2C[C@H]3C(=O)N[C@]4(C(=O)NS(=O)(=O)C5CC5)C[C@H]4/C=C\CC[C@H](C)C[C@@H](C)[C@H](NC(=O)OC(C)(C)C)C(=O)N3C2)c2ccccc12` [Compound 5088, tert-butyl ((2R,6S,7R,9S,13aS,14aR,16aS,Z)-14a-((cyclopropylsulfonyl)carbamoyl)-7,9-dimethyl-5,16-dioxo-2-((4-propoxyisoquinolin-1-yl)oxy)-1,2,3,5,6,7,8,9,10,11,13a,14,14a,15,16,16a-hexadecahydrocyclopropa[e]pyrrolo[1,2-a][1,4]diazacyclopentadecin-6-yl)carbamate] the EC50 ([1]; HCV genotype 1a replicon luciferase, read-out: LE_1a (EC50)) was 103 nM, the EC50 [1, 7] was greater than 87.4 nM and the EC50 ([2]; HCV genotype 1b replicon luciferase, read-out: LE_1b (EC50)) was 20.3 nM. It also gave an EC50 [2, 8] of 4.82 to 103 nM.
`COCCOc1cnc(O[C@@H]2C[C@H]3C(=O)N[C@]4(C(=O)NS(=O)(=O)C5CC5)C[C@H]4/C=C\CC[C@H](C)C[C@@H](C)[C@H](NC(=O)OC4COC4)C(=O)N3C2)c2ccc(OC)cc12` [Compound 1158, oxetan-3-yl ((2R,6S,7R,9S,13aS,14aR,16aS,Z)-14a-((cyclopropylsulfonyl)carbamoyl)-2-((6-methoxy-4-(2-methoxyethoxyl)isoquinolin-1-yl)oxy)-7,9-dimethyl-5,16-dioxo-1,2,3,5,6,7,8,9,10,11,13a,14,14a,15,16,16a-hexadecahydrocyclopropa[e]pyrrolo[1,2-a][1,4]diazacyclopentadecin-6-yl)carbamate] showed an EC50 [1, 3] of 4.82 to 103 nM and an EC50 [2, 4] of 4.82 to 103 nM.
`COc1cnc(O[C@@H]2C[C@H]3C(=O)N[C@]4(C(=O)NS(=O)(=O)C5(CF)CC5)C[C@H]4/C=C\CC[C@@H](C)C[C@@H](C)[C@H](NC(=O)OC4(C(F)(F)F)COC4)C(=O)N3C2)c2ccccc12` [Compound 1046, 3-(trifluoromethyl)oxetan-3-yl ((2R,6S,7R,9R,13aS,14aR,16aS,Z)-14a-(((1-(fluoromethyl)cyclopropyl)sulfonyl)carbamoyl)-2-((4-methoxyisoquinolin-1-yl)oxy)-7,9-dimethyl-5,16-dioxo-1,2,3,5,6,7,8,9,10,11,13a,14,14a,15,16,16a-hexadecahydrocyclopropa[e]pyrrolo[1,2-a][1,4]diazacyclopentadecin-6-yl)carbamate] was tested, and the EC50 [1, 3] was less than 5.46 nM and the EC50 [2, 4] was less than 5.46 nM.
In the case of `COc1ccc2c(O[C@@H]3C[C@H]4C(=O)N[C@]5(C(=O)NS(=O)(=O)C6CC6)C[C@H]5/C=C\CC[C@@H](C)C[C@@H](C)[C@H](NC(=O)OC(C)(C)C(F)(F)F)C(=O)N4C3)nc(-c3ccc(OC(C)C)c(F)c3)cc2c1` [Compound 3064, 1,1,1-trifluoro-2-methylpropan-2-yl((2R,6S,7R,9R,13aS,14aR,16aS,Z)-14a-((cyclopropylsulfonyl)carbamoyl)-2-((3-(3-fluoro-4-isopropoxyphenyl)-6-methoxyisoquinolin-1-yl)oxy)-7,9-dimethyl-5,16-dioxo-1,2,3,5,6,7,8,9,10,11,13a,14,14a,15,16,16a-hexadecahydrocyclopropa[e]pyrrolo[1,2-a][1,4]diazacyclopentadecin-6-yl)carbamate], the EC50 [1, 3] is reported as less than 5.46 nM and the EC50 [2, 4] is reported as less than 5.46 nM.
